Assay results published in ChEMBL document CHEMBL1201862, “PubChem BioAssay data set” (2004).
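Tested at 5 concentrations; 48 h exposure; 96-well plates; endpoints linearly interpolated, else capped at highest concentration. Here, GI50 denotes the concentration required for 50% inhibition of growth.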 Activity calls are given as the source filed them. Cut-off read from the data, not from the text of the source: active = GI50 up to about 1.1 µM and inactive = higher.

How the values were obtained:
Assay in all cases: inhibition of tumour cell growth, NCI panel, 48 h
T47D = test system: T47D
CCRF-CEM = test system: CCRF-CEM
HCT-116 = test system: HCT-116
K562 = test system: K562
HT-29 = test system: HT-29
CAKI-1 = test system: CAKI-1
LOX IMVI = test system: LOX IMVI
RPMI-8226 = test system: RPMI-8226
A498 = test system: A498
MDA-MB-435 = test system: MDA-MB-435
SF-539 = test system: SF-539
SK-MEL-28 = test system: SK-MEL-28
SR = test system: SR
NCI-H460 = test system: NCI-H460
MDA-N = test system: MDA-N
OVCAR-8 = test system: OVCAR-8
SF-295 = test system: SF-295
A549 = test system: A549
NCI-H23 = test system: NCI-H23
MDA-MB-231 = test system: MDA-MB-231
NCI/ADR-RES = test system: NCI/ADR-RES
TK-10 = test system: TK-10
HOP-92 = test system: HOP-92
NCI-H226 = test system: NCI-H226
ACHN = test system: ACHN
786-0 = test system: 786-0
MCF7 = test system: MCF7
HL-60 = test system: HL-60
OVCAR-4 = test system: OVCAR-4
SK-MEL-5 = test system: SK-MEL-5
UO-31 = test system: UO-31
M14 = test system: M14
BT-549 = test system: BT-549
UACC-62 = test system: UACC-62
UACC-257 = test system: UACC-257
RXF 393 = test system: RXF 393
DU-145 = test system: DU-145
COLO 205 = test system: COLO 205
OVCAR-5 = test system: OVCAR-5
SNB-19 = test system: SNB-19
IGROV-1 = test system: IGROV-1
SW-620 = test system: SW-620
SF-268 = test system: SF-268
NCI-H522 = test system: NCI-H522
Hs-578T = test system: Hs-578T
KM12 = test system: KM12
PC-3 = test system: PC-3
HOP-62 = test system: HOP-62
U-251 = test system: U-251
SK-OV-3 = test system: SK-OV-3
HCC 2998 = test system: HCC 2998
SN12C = test system: SN12C
SK-MEL-2 = test system: SK-MEL-2
Malme-3M = test system: Malme-3M
OVCAR-3 = test system: OVCAR-3
HCT-15 = test system: HCT-15
EKVX = test system: EKVX

## CN1CCN(C(=S)N2CCN(C)CC2)CC1
T47D
  GI50: 2.11 µM (inactive)
CCRF-CEM
  GI50: 0.7 µM (active)
HCT-116
  GI50: > 100 µM (inactive)
K562
  GI50: 7.98 µM (inactive)
HT-29
  GI50: 1.73 µM (inactive)
CAKI-1
  GI50: > 100 µM (inactive)
LOX IMVI
  GI50: > 100 µM (inactive)
RPMI-8226
  GI50: 2.06 µM (inactive)
A498
  GI50: 5.62 µM (inactive)
MDA-MB-435
  GI50: > 100 µM (inactive)
SF-539
  GI50: 10.8 µM (inactive)
SK-MEL-28
  GI50: > 100 µM (inactive)
SR
  GI50: 0.213 µM (active)
NCI-H460
  GI50: 5.35 µM (inactive)
MDA-N
  GI50: > 26.6 µM (inactive)
OVCAR-8
  GI50: > 100 µM (inactive)
SF-295
  GI50: > 100 µM (inactive)
A549
  GI50: > 100 µM (inactive)
NCI-H23
  GI50: > 32.1 µM (inactive)
MDA-MB-231
  GI50: > 100 µM (inactive)
NCI/ADR-RES
  GI50: 25.3 µM (inactive)
TK-10
  GI50: > 19.7 µM (inactive)
HOP-92
  GI50: > 100 µM (inactive)
NCI-H226
  GI50: > 100 µM (inactive)
ACHN
  GI50: > 100 µM (inactive)
786-0
  GI50: 21.9 µM (inactive)
MCF7
  GI50: 1.08 µM (active)
HL-60
  GI50: > 100 µM (inactive)
OVCAR-4
  GI50: > 65.2 µM (inactive)
SK-MEL-5
  GI50: > 26.1 µM (inactive)
UO-31
  GI50: > 100 µM (inactive)
M14
  GI50: > 48.1 µM (inactive)
BT-549
  GI50: > 100 µM (inactive)
UACC-62
  GI50: 4.85 µM (inactive)
UACC-257
  GI50: > 100 µM (inactive)
RXF 393
  GI50: > 100 µM (inactive)
DU-145
  GI50: > 100 µM (inactive)
COLO 205
  GI50: 1.37 µM (inactive)
OVCAR-5
  GI50: > 100 µM (inactive)
SNB-19
  GI50: > 100 µM (inactive)
IGROV-1
  GI50: > 84.3 µM (inactive)
SW-620
  GI50: > 30.8 µM (inactive)
SF-268
  GI50: > 100 µM (inactive)
NCI-H522
  GI50: 0.966 µM (active)
Hs-578T
  GI50: > 100 µM (inactive)
KM12
  GI50: > 100 µM (inactive)
PC-3
  GI50: > 29.8 µM (inactive)
HOP-62
  GI50: > 100 µM (inactive)
U-251
  GI50: > 100 µM (inactive)
SK-OV-3
  GI50: > 30.1 µM (inactive)
HCC 2998
  GI50: > 61.5 µM (inactive)
SN12C
  GI50: > 100 µM (inactive)
SK-MEL-2
  GI50: > 100 µM (inactive)
Malme-3M
  GI50: > 100 µM (inactive)

## CCCC(CC)c1c(O)c(O)c(C(CC)CCC)c(C(CC)CCC)c1C(CC)CCC (stereo unspecified)
T47D
  GI50: > 10 µM (inactive)
CCRF-CEM
  GI50: > 10 µM (inactive)
HCT-116
  GI50: > 10 µM (inactive)
K562
  GI50: > 10 µM (inactive)
HT-29
  GI50: > 10 µM (inactive)
CAKI-1
  GI50: > 10 µM (inactive)
LOX IMVI
  GI50: > 10 µM (inactive)
RPMI-8226
  GI50: > 10 µM (inactive)
A498
  GI50: > 10 µM (inactive)
MDA-MB-435
  GI50: > 10 µM (inactive)
SF-539
  GI50: > 10 µM (inactive)
SK-MEL-28
  GI50: > 10 µM (inactive)
SR
  GI50: > 10 µM (inactive)
NCI-H460
  GI50: > 10 µM (inactive)
MDA-N
  GI50: > 10 µM (inactive)
OVCAR-8
  GI50: > 10 µM (inactive)
SF-295
  GI50: > 10 µM (inactive)
A549
  GI50: > 10 µM (inactive)
NCI-H23
  GI50: > 10 µM (inactive)
MDA-MB-231
  GI50: > 10 µM (inactive)
NCI/ADR-RES
  GI50: > 10 µM (inactive)
OVCAR-3
  GI50: > 10 µM (inactive)
TK-10
  GI50: > 10 µM (inactive)
HOP-92
  GI50: > 10 µM (inactive)
NCI-H226
  GI50: > 10 µM (inactive)
ACHN
  GI50: > 10 µM (inactive)
786-0
  GI50: > 10 µM (inactive)
MCF7
  GI50: > 10 µM (inactive)
HL-60
  GI50: > 10 µM (inactive)
OVCAR-4
  GI50: > 10 µM (inactive)
HCT-15
  GI50: > 10 µM
SK-MEL-5
  GI50: > 10 µM (inactive)
UO-31
  GI50: > 10 µM (inactive)
M14
  GI50: > 10 µM (inactive)
BT-549
  GI50: > 10 µM (inactive)
UACC-62
  GI50: > 10 µM (inactive)
UACC-257
  GI50: > 10 µM (inactive)
RXF 393
  GI50: > 10 µM (inactive)
DU-145
  GI50: > 10 µM (inactive)
COLO 205
  GI50: > 10 µM (inactive)
OVCAR-5
  GI50: > 10 µM (inactive)
SNB-19
  GI50: > 10 µM (inactive)
IGROV-1
  GI50: > 10 µM (inactive)
SW-620
  GI50: > 10 µM (inactive)
EKVX
  GI50: > 10 µM (inactive)
SF-268
  GI50: > 10 µM (inactive)
NCI-H522
  GI50: > 10 µM (inactive)
Hs-578T
  GI50: > 10 µM (inactive)
KM12
  GI50: > 10 µM (inactive)
PC-3
  GI50: > 10 µM (inactive)
HOP-62
  GI50: > 10 µM (inactive)
U-251
  GI50: > 10 µM (inactive)
SK-OV-3
  GI50: > 10 µM (inactive)
HCC 2998
  GI50: > 10 µM (inactive)
SN12C
  GI50: > 10 µM (inactive)
SK-MEL-2
  GI50: > 10 µM (inactive)
Malme-3M
  GI50: > 10 µM (inactive)
